Test results as given in ChEMBL document CHEMBL5120836, “Discovery of novel 7,8-dihydropteridine-6(5H)-one-based DNA-PK inhibitors as potential anticancer agents via scaffold hopping strategy” (Eur J Med Chem, 2022).
≈ marks a conversion by molar mass, not a printed value. Calls of active or inactive are those of the source. No cut-off for these calls is given here.

Tests used:
[1] = Toxicity in BALB/c nude mouse xenografted with human HL-60 cells assessed as RDW-CV level at 100 mg/kg, po qd for 16 days (reference value: 14.25%); assay type: organism-based; conditions: in vivo, 384 h, time 16 day
[2] = Intrinsic clearance in rat liver microsomes; assay type: ADME, Microsome; conditions: read-out: CLH
[3] = Half life in human liver microsomes; assay type: ADME, Microsome
[4] = Kinetic solubility of the compound in phosphate-buffered solution at pH 6.4 incubated for 24 hrs by HPLC-MS/MS analysis; assay type: physicochemical; conditions: phosphate buffer, read-out: Kinetic_solubility
HepG2 [5] = assay: Synergistic antiproliferative activity against Doxorubicin-resistant human HepG2 cells assessed as combination index at 0.1 uM in presence of 0.1 uM doxorubicin by MTT assay; assay type: functional
[6] = Toxicity in BALB/c nude mouse xenografted with human HL-60 cells assessed as serum WBC content at 100 mg/kg, po qd for 16 days (reference value: 3.8X10^9/L); assay type: organism-based; conditions: in vivo, 384 h, time 16 day
HL-60 [7] = assay: Synergistic antitumor activity against human HL-60 cells xenografted in BALB/c nude mouse assessed as tumor weight at 100 mg/kg, po qd for 16 days co-administered with doxorubicin (reference value: 27.9%); assay type: functional; conditions: HL-60, 384 h, time 16 day
HCT-116 [8] = assay: Inhibition of cell migration in human HCT-116 cells at 1 uM measured after 24 hrs by wound healing assay; assay type: functional, cell-based
[9] = Toxicity in BALB/c nude mouse xenografted with human HL-60 cells assessed as serum monocytes content at 100 mg/kg, po qd for 16 days (reference value: 0.5X10^9/L); assay type: organism-based; conditions: in vivo, 384 h, time 16 day
HepG2 [10] = assay: Synergistic antiproliferative activity against Doxorubicin-resistant human HepG2 cells assessed as combination index at 3.1 uM in presence of 0.1 uM doxorubicin by MTT assay; assay type: functional
[11] = Toxicity in BALB/c nude mouse xenografted with human HL-60 cells assessed as kidney morphological alterations at 100 mg/kg, po qd for 16 days by Hematoxylin and Eosin staining based analysis; assay type: organism-based; conditions: in vivo, 384 h, time 16 day
MCF7 [12] = assay: Synergistic antiproliferative activity against human MCF7 cells assessed as combination index at 6.25 uM in presence of 0.1 uM doxorubicin by MTT assay; assay type: functional
HL-60 [13] = assay: Synergistic antiproliferative activity against human HL-60 cells assessed as combination index at 0.1 uM in presence of 0.1 uM doxorubicin by MTT assay; assay type: functional
[14] = Toxicity in BALB/c nude mouse xenografted with human HL-60 cells assessed as MCV level at 100 mg/kg, po qd for 16 days (reference value: 57.2 fL); assay type: organism-based; conditions: in vivo, 384 h, time 16 day
HepG2 [15] = assay: Synergistic antiproliferative activity against Doxorubicin-resistant human HepG2 cells assessed as combination index at 1 uM in presence of 0.1 uM doxorubicin by MTT assay; assay type: functional
[16] = biological target: Phosphatidylinositol 4,5-bisphosphate 3-kinase catalytic subunit alpha isoform (Homo sapiens, UniProt P42336); assay: Inhibition of human PI3Kalpha by Kinase-Glo assay; assay type: toxicity
[17] = Toxicity in BALB/c nude mouse xenografted with human HL-60 cells assessed as serum lymphocytes content at 100 mg/kg, po qd for 16 days (reference value: 75.3%); assay type: organism-based; conditions: in vivo, 384 h, time 16 day
[18] = Toxicity in BALB/c nude mouse xenografted with human HL-60 cells assessed as MPV level at 100 mg/kg, po qd for 16 days (reference value: 7.55 fL); assay type: organism-based; conditions: in vivo, 384 h, time 16 day
MCF7 [19] = assay: Synergistic antiproliferative activity against human MCF7 cells assessed as combination index at 0.1 uM in presence of 0.1 uM doxorubicin by MTT assay; assay type: functional
HL-60 [20] = assay: Synergistic antiproliferative activity against human HL-60 cells assessed as combination index at 200 uM in presence of 0.1 uM doxorubicin by MTT assay; assay type: functional
HCT-116 [21] = assay: Disruption of mitochondrial function in human HCT-116 cells assessed as decrease in mitochondrial membrane potential by measuring proportion of cells with green fluorescence at 1 uM incubated for 24 hrs by JC-1 staining based flow cytometry (reference value: 0.566%); assay type: functional; design: scale not given: the % may be the effect or the level left
MCF7 [22] = assay: Synergistic antiproliferative activity against human MCF7 cells assessed as combination index at 1 uM in presence of 0.1 uM doxorubicin by MTT assay; assay type: functional
HepG2 [23] = assay: Synergistic antiproliferative activity against Doxorubicin-resistant human HepG2 cells assessed as combination index at 100 uM in presence of 0.1 uM doxorubicin by MTT assay; assay type: functional
[24] = biological target: T1, Phosphatidylinositol 4,5-bisphosphate 3-kinase catalytic subunit delta isoform (Homo sapiens, UniProt O00329); assay: Inhibition of human PI3Kdelta by ADP-Glo assay; assay type: toxicity
T1 sequence (O00329 whole entry): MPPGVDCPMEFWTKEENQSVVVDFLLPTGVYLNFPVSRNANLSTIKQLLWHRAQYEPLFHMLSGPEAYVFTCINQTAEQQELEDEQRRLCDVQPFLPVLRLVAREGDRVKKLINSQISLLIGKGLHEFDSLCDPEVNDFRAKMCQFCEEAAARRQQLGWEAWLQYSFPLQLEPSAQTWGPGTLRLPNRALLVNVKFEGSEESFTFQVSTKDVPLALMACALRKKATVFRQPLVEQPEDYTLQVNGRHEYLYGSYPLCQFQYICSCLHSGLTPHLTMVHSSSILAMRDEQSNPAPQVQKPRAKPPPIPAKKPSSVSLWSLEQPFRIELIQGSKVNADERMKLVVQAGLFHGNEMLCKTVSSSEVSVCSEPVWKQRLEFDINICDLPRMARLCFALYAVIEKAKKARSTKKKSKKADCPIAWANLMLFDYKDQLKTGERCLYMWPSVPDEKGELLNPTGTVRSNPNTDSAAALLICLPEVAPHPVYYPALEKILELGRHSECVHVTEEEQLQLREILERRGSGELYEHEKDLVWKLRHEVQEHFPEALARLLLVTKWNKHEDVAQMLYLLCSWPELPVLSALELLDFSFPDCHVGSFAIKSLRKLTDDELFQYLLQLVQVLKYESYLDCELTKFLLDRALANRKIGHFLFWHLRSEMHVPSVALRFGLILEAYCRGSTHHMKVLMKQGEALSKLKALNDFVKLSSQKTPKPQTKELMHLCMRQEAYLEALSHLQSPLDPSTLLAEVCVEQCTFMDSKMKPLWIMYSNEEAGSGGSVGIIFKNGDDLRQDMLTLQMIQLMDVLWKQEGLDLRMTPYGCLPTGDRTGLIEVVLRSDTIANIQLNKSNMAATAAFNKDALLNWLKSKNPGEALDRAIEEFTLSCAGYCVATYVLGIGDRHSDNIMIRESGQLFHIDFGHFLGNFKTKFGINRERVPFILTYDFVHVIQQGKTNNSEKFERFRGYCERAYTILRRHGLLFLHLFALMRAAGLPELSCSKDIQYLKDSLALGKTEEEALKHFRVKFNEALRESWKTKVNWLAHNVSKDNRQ

HL-60 [25] = assay: Synergistic antiproliferative activity against human HL-60 cells assessed as combination index at 1 uM in presence of 0.1 uM doxorubicin by MTT assay; assay type: functional
[26] = Cmax in Sprague-Dawley rat at 5 mg/kg, po; assay type: ADME, organism-based; design: dose 5 mg/kg, route po; conditions: in vivo

Sequence of Phosphatidylinositol 4,5-bisphosphate 3-kinase catalytic subunit alpha isoform (P42336 whole entry, canonical isoform): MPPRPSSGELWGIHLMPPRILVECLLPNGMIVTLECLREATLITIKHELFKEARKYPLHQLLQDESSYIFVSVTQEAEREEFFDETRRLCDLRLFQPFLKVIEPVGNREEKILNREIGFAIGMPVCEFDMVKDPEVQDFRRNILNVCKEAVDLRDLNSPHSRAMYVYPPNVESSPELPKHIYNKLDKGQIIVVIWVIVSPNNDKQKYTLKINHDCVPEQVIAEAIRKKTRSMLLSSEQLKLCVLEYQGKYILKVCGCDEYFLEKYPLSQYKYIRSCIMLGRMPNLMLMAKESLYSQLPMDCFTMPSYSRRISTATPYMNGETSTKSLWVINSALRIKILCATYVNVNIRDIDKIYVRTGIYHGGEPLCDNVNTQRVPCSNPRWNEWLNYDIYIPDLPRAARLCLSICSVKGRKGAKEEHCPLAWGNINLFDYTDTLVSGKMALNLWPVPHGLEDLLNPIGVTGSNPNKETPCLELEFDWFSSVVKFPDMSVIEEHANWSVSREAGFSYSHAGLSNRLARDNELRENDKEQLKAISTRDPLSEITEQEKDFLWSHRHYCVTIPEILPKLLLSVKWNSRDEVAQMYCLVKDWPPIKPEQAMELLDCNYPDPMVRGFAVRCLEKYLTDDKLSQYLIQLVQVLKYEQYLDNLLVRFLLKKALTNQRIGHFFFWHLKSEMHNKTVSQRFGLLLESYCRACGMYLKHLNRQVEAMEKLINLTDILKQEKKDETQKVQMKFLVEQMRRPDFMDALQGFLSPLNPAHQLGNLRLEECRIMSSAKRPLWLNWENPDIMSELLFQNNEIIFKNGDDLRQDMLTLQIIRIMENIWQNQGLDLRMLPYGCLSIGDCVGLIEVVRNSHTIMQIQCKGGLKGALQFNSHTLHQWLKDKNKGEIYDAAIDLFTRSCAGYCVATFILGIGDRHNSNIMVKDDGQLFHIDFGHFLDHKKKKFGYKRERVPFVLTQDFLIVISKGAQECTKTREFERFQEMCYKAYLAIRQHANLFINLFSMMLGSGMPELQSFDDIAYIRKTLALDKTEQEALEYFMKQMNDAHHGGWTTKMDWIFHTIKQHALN

## Cc1cc2ncnn2cc1Nc1ncc2c(n1)N(C1CCOCC1)CC(=O)N2C
[1]
  Activity: 15%
[2]
  microsomal CLint: < 9.6 µL/min/mg
[3]
  half-life: > 2.42 h
[4]
  solubility kinetic at 24 h: 72.2 µg/mL (≈ 183 µM)
HepG2 [5]
  CI: 0.06059
[6]
  Activity: 4.35 10^9/L
HL-60 [7]
  inhibition in vivo at 100 mg/kg: 52.4%
HCT-116 [8]
  inhibition: Active
[9]
  Activity: 0.51 10^9/L
HepG2 [10]
  CI: 0.02104
[11]
  Activity: Non-Toxic
MCF7 [12]
  CI: 0.06841
HL-60 [13]
  CI: 0.00121
[14]
  Activity: 56.1 fL
HepG2 [15]
  CI: 0.011
[16]
  IC50: 187 nM
[17]
  Activity: 77.25%
[18]
  Activity: 6.85 fL
MCF7 [19]
  CI: 0.2844
HL-60 [20]
  CI: 0.9812
HCT-116 [21]
  Activity: 3.55%
MCF7 [22]
  CI: 0.03832
HepG2 [23]
  CI: 0.1244
[24]
  IC50: 758 nM
HL-60 [25]
  CI: 0.00616
[26]
  Cmax: 810 ng/mL
